{"source": "patent US5217965A", "about": "“Stabilized solid dosage forms of choline metal carboxymethylcellulose salicylate compositions” (Euroceltique, S.A., priority 1991, dated 1993)", "origin": "cited, not measured here", "settings": "background", "data": [{"smiles": "C[N+](C)(C)CCO.O=C([O-])c1ccccc1O", "note": "[Choline salicylate]", "values": [{"measurement": "Hygroscopicity", "result": "highly hygroscopic"}]}]}
